Source: patent publication US20220055997A1, “ANTIMICROBIAL COMPOUNDS AND COMPOSITIONS COMPRISING SAME” (B.G. NEGEV TECHNOLOGIES AND APPLICATIONS LTD., AT …, priority 2019, published 2022)

Columns and labels:
M. smegmatis ribosomes = experiment: bacterial coupled transcription/translation assay, luciferase reporter (in vitro translation); format: biochemical; details: for inhibition of translation of a reporter gene by Mtb ribosomes in vitro / inhibition of luciferase activity compared with chloramphenicol / IC50: FIG. 4; for inhibition of translation of a reporter gene by Mtb ribosomes in vitro: dose-dependent; for inhibition of luciferase activity compared with chloramphenicol: luciferase activity vs compound concentration; for IC50: protein synthesis by in vitro translation reaction, M. smegmatis ribosomes
[1] = test system: 29mer RNA SEQ ID NO: 1, hairpin 91 of M. tuberculosis PTC; experiment: T2 relaxation (CPMG) NMR fragment screen; format: binding

Structure (SMILES) | inhibition of translation of a reporter gene by Mtb ribosomes in vitro (M. smegmatis ribosomes) | inhibition of luciferase activity compared with chloramphenicol (M. smegmatis ribosomes) | IC50 (M. smegmatis ribosomes) [µM] | other results
Cc1nc(CN2CCN(Cc3csc(-c4ccccc4)n3)CC2)cs1 [Compound Nr. 2, 1-[(2-methylthiazol-4-yl)methyl]-4-[(2-phenylthiazol-4-yl)methyl]piperazine] | inhibit translation of a reporter gene | as effective inhibitor of luciferase activity as chloramphenicol | 8.9 | inhibition activity compared among compounds (M. smegmatis ribosomes; Nr. 2 compared to compounds Nr. 3, 4 and 5, data not shown): higher inhibition activity
CCN1CCN(Cc2csc(-c3ccccc3)n2)CC1 [Compound Nr. 8, 1-ethyl-4-[(2-phenylthiazol-4-yl)methyl]piperazine] | inhibit translation of a reporter gene | about twice as better than both | 4.8 | 
CNCc1ccc(-c2nccs2)cc1 [N-methyl-4-(1,3-thiazol-2-yl)benzylamine] |  |  |  | hit in T2-edited (CPMG NMR) mini-screen ([1]; pool number 2 of three pools of 10 fragments, with and without target RNA, FIG. 3): hits
NCc1csc(-c2cccc(Cl)c2)n1 [[2-(3-chlorophenyl)-1,3-thiazol-4-yl]methanamine] |  |  |  | change in T2 upon addition of RNA ([1]; pool 81, peaks 1-3, 1D CPMG spectra, FIG. 7A): largest change in T2
O=C(N[C@H](CO)[C@H](O)c1ccc([N+](=O)[O-])cc1)C(Cl)Cl [chloramphenicol, reference compound] |  |  | 9.2 | 
